Results on five molecules are retold here after patent US20180028681A1, “COMBINATION THERAPY USING A CD19-ADC AND VINCRISTINE” (SEATTLE GENETICS, INC., priority 2015, published 2018).

The test system of one assay is NALM6 cells. Kind of assay: In vitro cytotoxicity (CellTiter-Glo) on NALM6 cells. In kind it is cell-based. The note with it: 96 hours, minimally/low effective dose used for the combination. The method, then:
Isobolograms: Cells were plated at 5000 per well in 384 well plates using Fluid-X liquid handler (Fluid-X, Boston, Mass.). SGN-CD19A and Vincristine were plated separately and serial diluted in 2×96 well plates per drug. SGN-CD19A and Vincristine were added to 384 well plates, either alone or in combination at range above and below the IC50 for each single agent using the Hamilton STAR automation robotics (Hamilton, Reno, Nev.). Cells were kept at 37° C. for 96 hours. Cell viability readout was performed using the CellTiter-Glo assay (Promega, Madison, Wis.). Luminescence was measured using the Envision plate reader (Perkin Elmer, Waltham, Mass.). Activity was determined by the luminescence of treated cells compared to that of untreated cells.
To verify the results of the in vivo SGN-CD19A plus vincristine or SGN-CD19A plus doxorubicin combinations, in vitro cytotoxicity experiments were performed. […] The concentration of each agent was serially diluted to include doses that would have no cytotoxicity to doses that would kill all cells. […] NALM-6 cells were also incubated with a combination of SGN-CD19A and doxorubicin, in a similar manner.
(In general: Cellular ATP, detected with luciferase, serves as a proxy for viable cell number.)

Assay [1] has as its system ALL patient donor 06343 xenograft. Kind of assay: Disease burden (blast cells) in bone marrow, patient-derived ALL xenograft donor 06343. In kind it is in vivo, mouse. The conditions noted are these: for Disease Burden in Bone Marrow, CD45/10% Mean: NOD-scid IL2Rγ null mice, dosed at 38% blasts in sentinels, bone marrow counts day 14 post-dose. The source says: Establishment of patient-derived xenografts: NOD-scid IL2Rγ null mice were used as hosts for patient-derived xenografts. Twenty-four hours prior to cell implant, mice received 1.0 Gy irradiation using a Radsource 2000 irradiator (Radsource technologies, Suwanee, Ga.). Frozen bone marrow isolates of mononuclear cells from patients with acute lymphoblastic leukemia were obtained from […] (Alameda, Calif.). Cells were thawed in a warm water bath. After thaw, RPMI-1640 media was slowly added to the bone marrow isolate suspension. The cells were washed with PBS and centrifuged to remove DMSO in freezing media. After centrifugation, the cells were suspended in PBS. For, implantation, 3.6×10^6 cells were injected into the tail vein of female NOD-scid IL2Rγ null mice designated as donor, or passage 0 mice. Approximately 7 weeks after implant, mice were euthanized. Bone marrow and spleen were collected using sterile technique. Spleens were mechanically disrupted using a sterile syringe end and mesh filter. Connective tissues from spleens were filtered out using 40um filters. Splenocytes and bone marrow cells were treated with red blood cell buffer lysis (BD lysis buffer, BD biosciences, San Jose, Calif.) for 15 minutes at room temperature. A sample of the cells was utilized for confirmation of engraftment. The percentage of blast cells was determined by the number of CD45 FITC, CD19 PE-Cy.5 (BD Biosciences, San Jose, Calif.) CD10 APC (Biolegend, San Diego, Calif.) triple positive cells via flow cytometry (FACScalibur, BD Biosciences, San Jose, Calif.). The majority of the cells (passage 1) were placed into freezing media (90% Heat inactivated fetal bovine serum and 10% DMSO). Subsequent xenograft experiments utilized passage 1 cells. Cells were implanted in the same manner done for donor mice (passage 0 mice). Starting 14-21 days post implant, 2-3 sentinel mice were euthanized to determine the percentage blast cells in the bone marrow. Once the percentage of blast cells was at 25-50% of the bone marrow mononuclear cells mice were randomly placed into treatment groups. SGN-CD19A and non-specific ADC (also called h00-1269) were administered as a single intraperitoneal injection at 1.0, 3.0, or 10.0 mg/kg dose. Cyclophosphamide at 15 or 30 mg/kg (Baxter, Deefield, Ill.), Vincristine at 0.188 or 0.375 mg/kg (Hospira, Lake Forest, Ill.), and Doxorubicin at 1.24 or 2.475 mg/kg (Pfizer, NY, NY) were combined and administered as a single dose via intravenous injection into the lateral tail vein. Dexamethasone at 7.5 or 15 mg/kg (APP Pharmaceuticals, Schaumberg, Ill.) was given daily via intraperitoneal injection for five days. At pre-determined times post treatment, mice were euthanized for collection of bone marrow and determination of blast cell percentage via flow cytometry.
The response of human patient-derived ALL cells to single agent SGN-CD19A or CVAD was determined in mouse xenograft models. Bone marrow isolates from patients with ALL (donor 06343 and donor 90811) were used to establish xenografts in NOD-scid IL2Rgamma^null mice. After engraftment, patient-derived bone marrow cells were frozen and are referred to as passage 1 cells. Passage 1 cells were implanted into mice and assessed for presence of blast cells (CD45/CD10/CD19 positive cells). After blast cells were between 25-50% of the bone marrow, mice were placed in treatment groups (n=3 mice per time point). Mice were given either 1, 3, or 10 mg/kg of SGN-CD19A or 10 mg/kg of a non-specific ADC conjugated to MMAF (also called h00-1269). A maximum tolerated dose (MTD) of CVAD had previously been determined in the same mouse strain. Mice were given either CVAD at the MTD or at 50% of the MTD.
The response of human patient-derived ALL cells to the combination of SGN-CD19A and CVAD was also determined in the mouse xenograft model. Patient samples were engrafted as described above.
A general note: Xenograft models place foreign cells or tissue in a host animal.

As to `COc1cccc2c1C(=O)c1c(O)c3c(c(O)c1C2=O)C[C@@](O)(C(=O)CO)C[C@@H]3O[C@H]1C[C@H](N)[C@H](O)[C@H](C)O1` [Doxorubicin], in the assay on NALM6 cells, the “cell kill as a single agent” value was “approximately 20%”. In assay [1], the “Disease Burden in Bone Marrow, CD45/10% Mean” value (“Disease Burden … CD45/10% Mean” below) came to 69.2%. On the same counts, the results for `CC[C@]1(O)C[C@H]2CN(CCc3c([nH]c4ccccc34)[C@@](C(=O)OC)(c3cc4c(cc3OC)N(C=O)[C@H]3[C@@](O)(C(=O)OC)[C@H](OC(C)=O)[C@]5(CC)C=CCN6CC[C@]43[C@@H]65)C2)C1` [Vincristine] are “approximately 5%” and 69.1%.

Regarding `C[C@@H]1C[C@H]2[C@@H]3CCC4=CC(=O)C=C[C@]4(C)[C@@]3(F)[C@@H](O)C[C@]2(C)[C@@]1(O)C(=O)CO` [Dexamethasone], the “Disease Burden … CD45/10% Mean” value in assay [1] is reported as 82.5%. Consider `O=P1(N(CCCl)CCCl)NCCCO1` (centres unmarked) [Cyclophosphamide], for which, in assay [1], the “Disease Burden … CD45/10% Mean” value came out at 90%.

B1: SGN-CD19A: CD19-directed antibody-drug conjugate: humanized antibody hBU12, maleimidocaproyl linker, monomethyl auristatin F (MMAF); average four drugs per antibody (conjugate)
VL: EIVLTQSPATLSLSPGERATLSCSASSSVSYMHWYQQKPGQAPRLLIYDTSKLASGIPARFSGSGSGTDFTLTISSLEPEDVAVYYCFQGSVYPFTFGQGTKLEIKR
VH: QVQLQESGPGLVKPSQTLSLTCTVSGGSISTSGMGVGWIRQHPGKGLEWIGHIWWDDDKRYNPALKSRVTISVDTSKNQFSLKLSSVTAADTAVYYCARMELWSYYFDYWGQGTLVTVSS
B1: in assay [1], the “Disease Burden … CD45/10% Mean” value is 92.5%. For the same molecule, the “single agent dose response, blast cells in the bone marrow” value in assay [1] (SGN-CD19A 1, 3 or 10 mg/kg, CVAD at MTD or 50% of MTD, FIGS. 2A, 2C) is reported as “decreasing amounts of blast cells in the bone marrow”.
